The record followed here is patent publication US5047419A, “Photodynamic therapy of glioma or mammary carcinoma using seleno- or telluropyrylium salts” (Eastman Kodak Company, priority 1988, dated 1991).

Series [1] can be described thus: Quantum efficiency of singlet oxygen generation in air-saturated solution. As to conditions: air-saturated solution. Format: physicochemical. The text has this: (§1) The ability of the dyes of this invention to function as a cancer-treating agent is in part a reflection of the ability of the dye to generate singlet oxygen in air-saturated solution. (As used herein, "air-saturated solution" means a solution of dye exposed to the atmosphere.) In studying a variety of chalcogenopyrylium dyes, only those dyes containing a selenium or tellurium atom show any appreciable generation of singlet oxygen upon irradiation. Fortuitously, selenopyrylium and telluropyrylium dyes have absorption maxima that are shifted to the red relative to their pyrylium and thiopyrylium analogues. That is, not only are these dyes effective in killing cancer cells because of their high quantum efficiency, but also they generally operate at the most preferred wavelengths, namely those of 700 nm or longer. Table III contains examples of chalcogenopyrylium dyes, their quantum efficiencies for singlet oxygen generation, and their absorption maxima. (In this Table, Ph=Phenyl, Me=Methyl, and t-Bu=tertiary butyl.)

Series [2] in a line: Absorption maxima (λmax) of chalcogenopyrylium dyes. The format is physicochemical.
From the text: as §1

Series [3] is described as follows: In vitro photodynamic therapy, B-16 cells. The format is cell-based, mouse. As to conditions: mouse, b-16 melanoma cells, dark, read-out: % Surviving Fraction, Dark; for viability at 1 µM: B-16, 1 × 10^-6 M. Here is the method: (§2) Several selenopyrylium dyes and telluropyrylium dyes from Table I that generated singlet oxygen upon irradiation in air-saturated methanol were examined in vitro in mammalian cell cultures for their effectiveness as agents for photodynamic therapy. […] As controls, HSK1 (normal human skin fibroblasts) and CV-1 (normal monkey kidney cells) were used.
(§3) In vitro cell cultures were grown in antibiotic-free growth medium DMEM-F12 supplemented to 10% with fetal bovine serum and adjusted to 4.5 mM with L-glutamine. DMEM-F12 is a 1:1 mixture of Dulbecco's modified Eagle's medium (Gibco) and Ham's nutrient mixture F12 (Gibco). Prior to cell seeding, multi-well plates were blackened with spray paint, coating the external walls of each well to minimize light scattering from well to well. Subconfluent cell cultures were trypsinized and plated at a concentration of 10^5 cells per 2 cm^2 well. Cells were allowed to incubate overnight at 37° C. in a humidified atmosphere before dye and/or light exposure.
(§4) Stock solutions of the chalcogenopyrylium dyes were prepared at 1 mM concentration by sonication in 95% ethanol in the dark. These stock solutions were diluted with growth medium to the desired concentration. Dyes were protected from light throughout the entire experimental procedure until the time for irradiation. Standard treatment time for dye exposure was 1 hour. The dye containing medium was replaced with fresh growth medium prior to irradiation. Eighteen to twenty-four hours later, the remaining metabolically active cells were evaluated by the MTT colorimetric assay and/or cell counting. Assays were performed in triplicate with standard deviations generally of less than 10%. Percent kill was determined from mean optical density of the treated samples and that of the control (untreated) samples for the MTT analysis and from mean cell counts for these two groups for the cell-counting method. (See Table V).
(§5) Near-infrared and visible light from three sources were employed in these assays. Tungsten light (100-200 mW) was used to assess low milliwatt multiple wavelength effects. An argon-pumped dye laser (Model 150 Aurora, Cooper Lasersonics, Inc., Santa Clara, Calif.) with laser dye LDS 751 (Exciton Chemical Co., Inc., Dayton, Ohio) and a peak wavelength of 785±5 nm was coupled by a […] quartz fiberoptic to a microlens assembly that gave a uniform mode of distribution of light intensity. Thirdly, a laser diode (Model 2430-H2, Spectra Diode Laboratories, Inc., San Jose, Calif. with a fixed wavelength of 800±2 nm provided light energy in the near infrared. The diode was coupled by a 400 μm quartz fiberoptic with a clear and polished end. For laser irradiation experiments, the distance of the fiber tip from the well bottom was adjusted so that the laser irradiation exactly covered the 2 cm^2 target area. A distal power meter (Model 2000, Coherent, Inc., Auburn, Calif.) was used to determine the energy output of the laser source.

In series [4] the test system is B-16 melanoma (mouse melanoma). In words: In vitro photodynamic therapy, B-16 cells. As to conditions: Mus musculus. Format: cell-based. How it is done: as §2, §3, §4, §5
Series [5] in a line: In vitro photodynamic therapy, FADU cells. The format is cell-based, human. Particulars: human, fadu squamous cell carcinoma, FADU, dark, read-out: % Surviving Fraction, Dark; for viability at 1 µM: 1 × 10^-6 M. How it is done:
as §2, §3, §4, §5

For series [6], the system named is FADU (human squamous cell carcinoma). In words: In vitro photodynamic therapy, FADU cells. The format is cell-based. As to conditions: Homo sapiens, read-out: % Surviving Fraction, Light. How it is done:
as §2, §3, §4, §5

Series [7] in a line: In vitro photodynamic treatment, control CV-1 cells. Format: cell-based, monkey. As to conditions: monkey, cv-1 kidney cells, dark, read-out: % Surviving Fraction, Dark; for viability at 1 µM: CV1, 1 × 10^-6 M. Here is the method:
as §2, §3, §4, §5

The subject of series [8] is CV-1 (normal monkey kidney cells). The series is described as above. The format is cell-based. As to conditions: Primates. Here is the method: as §2, §3, §4, §5
Series [9] can be described thus: In vitro photodynamic therapy, U251 cells. The format is cell-based, human. Particulars: human, u251 glioma cells, dark, read-out: % Surviving Fraction, Dark; for viability at 1 µM: U251, 1 × 10^-6 M; for viability at 0.1 µM: U251, 1 × 10^-7 M. How it is done:
as §2, §3, §4, §5

A further series concerns U251 (human glioma). In words: In vitro photodynamic therapy, U251 cells. Format: cell-based. As to conditions: Homo sapiens, U-251, read-out: % Surviving Fraction, Light; for viability at 1 µM: U251, 1 × 10^-6 M; for viability at 0.1 µM: U251, 1 × 10^-7 M. Here is the method: as §2, §3, §4, §5
Series [10] can be described thus: In vitro photodynamic treatment, control HSK1 cells. The format is cell-based, human. As to conditions: human, hsk1 skin fibroblasts, dark, read-out: % Surviving Fraction, Dark; for viability at 0.1 µM: HSK1, 1 × 10^-7 M. Here is the method:
as §2, §3, §4, §5

Series [11] deals with HSK1 (normal human skin fibroblasts). The description is as above. The format is cell-based. Particulars: Homo sapiens, Skin fibroblast, read-out: % Surviving Fraction, Light; for viability at 0.1 µM: HSK1, 1 × 10^-7 M. Here is the method: as §2, §3, §4, §5
The nature of a further series: Stability in solution. Format: physicochemical.
The mark [12] stands for this setting: B16, read-out: % Surviving Fraction, Light.
The mark [13] stands for this setting: CV-1, read-out: % Surviving Fraction, Light.
Setting [14] is: 15 J cm^-2, source A (tungsten).
[15] abbreviates: 50 J cm^-2, source A (tungsten).

The structures appear in SMILES notation. Where two headings read alike, the source gives them in different places. Some results are limits rather than exact numbers.

In the case of `CC(C)(C)C1=CC(=CC=Cc2cc(C(C)(C)C)[o+]c(C(C)(C)C)c2)C=C(C(C)(C)C)O1.[Cl-]` [C.E. 3, 2,6-Di-t-butyl-4-[3-(2,6-di-t-butyl-4H-pyran-4-ylidene)-1-propen-1-yl]pyrylium chloride, reference compound], in series [1], the “Quantum efficiency of singlet oxygen generation Φ(1O2)” value (from here on “Quantum efficiency”) is ≤ 0.001. For the same molecule, the “Absorption maximum λmax” value in series [2] (H2O) turned out to be 595 nm. Besides, the viability at 1 µM was 99% in series [3]; 99% in series [4] (B16, B-16, 1 × 10^-6 M, 27 J cm^-2, source D (tungsten, 500 nm cutoff), read-out: % Surviving Fraction, Light); 99% in series [5]; 99% in series [6] (FADU, 1 × 10^-6 M, 27 J cm^-2, source D (tungsten, 500 nm cutoff)); 100% in series [7]; 99% in series [8] (CV-1, CV1, 1 × 10^-6 M, 27 J cm^-2, source D (tungsten, 500 nm cutoff), read-out: % Surviving Fraction, Light).
On to `CC(C)(C)C1=CC(=CC=Cc2cc(C(C)(C)C)[se+]c(C(C)(C)C)c2)C=C(C(C)(C)C)[Te]1` [Dye 1], for which the “Quantum efficiency” value in series [1] was determined as 0.09. The “Absorption maximum λmax” value in series [2] (CH2Cl2) worked out at 786 nm. For the same molecule, the viability at 0.05 µM was found to be 85% in series [9] (U251, 5 × 10^-8 M); 65% in the series with U251 (human glioma) (U251, 5 × 10^-8 M, 15 J cm^-2, source C (diode laser 800 nm)); 99% in series [3] (B-16, 5 × 10^-8 M); 0.03% in series [4] (setting [12]); 99% in series [5] (5 × 10^-8 M); 0.1% in series [6] (FaDu). Further, the viability at 0.05 µM in series [10] (HSK1, 5 × 10^-8 M) was determined as 99%; in series [11] (HSK1, 5 × 10^-8 M, 15 J cm^-2, source C (diode laser 800 nm)), 97%; in series [7] (CV1, 5 × 10^-8 M), 100%; in [8] (setting [13]) it was 99%.
For `CC(C)(C)C1=CC(=CC=Cc2cc(C(C)(C)C)[te+]c(C(C)(C)C)c2)C=C(C(C)(C)C)[Te]1` [Dye 4], the “Quantum efficiency” value in series [1] is recorded as 0.13. Further, in [2] (CH2Cl2), the “Absorption maximum λmax” value is 830 nm. Moreover, the viability at 1 µM is 100% in series [9]; 75% in the series on U251 (human glioma) (50 J cm^-2, source B (dye laser 785 nm)); 99% in series [3]; 30% in series [4] (setting [12]); 99% in series [7]; 95% in [8] (setting [13]).
Turning to `CC(C)(C)C1=CC(=CC=Cc2cc(C(C)(C)C)[o+]c(C(C)(C)C)c2)C=C(C(C)(C)C)[Te]1` [Dye 5], the “Quantum efficiency” value in series [1] came to 0.06. Also, the “Absorption maximum λmax” value in [2] (H2O) is given as 700 nm. For the same molecule, the viability at 0.1 µM in [9] worked out at 90%; in the series with U251 (human glioma) (setting [14]), 58%; in series [3] (B-16, 1 × 10^-7 M), 99%; in series [4] (setting [12]), 0.1%; in series [5] (1 × 10^-7 M) it was 99%; in series [6] (FaDu), 0.05%. In addition, the viability at 0.1 µM worked out at 99% in series [10]; 99% in [11] (setting [14]); 100% in series [7] (CV1, 1 × 10^-7 M); 99% in series [8] (setting [13]).
For the molecule `CC(C)(C)C1=CC(=CC=Cc2cc(C(C)(C)C)[o+]c(C(C)(C)C)c2)C=C(C(C)(C)C)[Se]1` [Dye 9], the “Quantum efficiency” value in series [1] came out at 0.005. For the same molecule, the “Absorption maximum λmax” value in series [2] (H2O) worked out at 660 nm. Besides, the viability at 1 µM in series [3] came out at 99%; in series [4] (setting [12]) it was 0.2%; in [5], 99%; in series [6] (FaDu), 0.2%; in series [7], 100%; in [8] (setting [13]) it was 99%.
Take `CC(C)(C)C1=CC(=Cc2cc(C(C)(C)C)[te+]c(C(C)(C)C)c2)C=C(C(C)(C)C)[Te]1` [Dye 12]: the “Quantum efficiency” value in series [1] is 0.07. For the same molecule, in series [2] (H2O), the “Absorption maximum λmax” value was 705 nm. Besides, the viability at 1 µM was 55% in series [9] and 1% in the series on U251 (human glioma) (setting [15]). In addition, the viability at 0.1 µM was determined as 83% in series [9], 74% in the series on U251 (human glioma) (setting [15]), 100% in [10] and 99% in series [11] (setting [15]).
Turning to `C(=CC=C1C=C(c2ccccc2)[Te]C(c2ccccc2)=C1)C=Cc1cc(-c2ccccc2)[te+]c(-c2ccccc2)c1` [Dye 16], the “Quantum efficiency” value in series [1] was 0.005. The “Absorption maximum λmax” value in [2] (MeOH) came out at 1060 nm. The Stability in solution entry in “Stability in solution” is given as “tended to be unstable in solution”.
